Reference: ChEMBL document CHEMBL3045535, “Evaluation of lufenuron as a chemosterilant against fruit flies of the genus Anastrepha (Diptera: Tephritidae)” (2010)
Active and inactive are the calls of the source. The rule behind the calls is not given here.

Columns and labels:
[1] = system: Anastrepha striata; experiment: Reduction of fertility in 7 days old adult of Anastrepha striata assessed as reduction of egg hatching at 10 mg/g treated with diet measured after 11 days oviposition; format: functional; design: scale not given: the % may be the effect or the level left
[2] = system: Anastrepha ludens; experiment: Reduction of fertility in 7 days old adult of Anastrepha ludens assessed as reduction of egg hatching at 10 mg/g treated with diet measured after 9 days oviposition; format: functional; design: scale not given: the % may be the effect or the level left
[3] = system: Anastrepha ludens; experiment: Reduction of fertility in 7 days old adult of Anastrepha ludens assessed as reduction of egg hatching at 10 mg/g treated with diet measured after 7 days oviposition; format: functional; design: scale not given: the % may be the effect or the level left
[4] = system: Anastrepha ludens; experiment: Reduction of fertility in 7 days old adult of Anastrepha ludens assessed as reduction of egg hatching at 10 mg/g treated with diet measured after 5 days oviposition; format: functional; design: scale not given: the % may be the effect or the level left
[5] = system: Anastrepha ludens; experiment: Reduction of fertility in 7 days old adult of Anastrepha ludens assessed as reduction of egg hatching at 0.1 mg/g treated with diet measured after 1 day oviposition; format: functional; design: scale not given: the % may be the effect or the level left
[6] = system: Anastrepha obliqua; experiment: Reduction of fertility in 7 days old adult of Anastrepha obliqua assessed as reduction of egg hatching at 10 mg/g treated with diet measured after 1 day oviposition; format: functional; design: scale not given: the % may be the effect or the level left
[7] = system: Anastrepha ludens; experiment: Reduction of fertility in 7 days old adult of Anastrepha ludens assessed as reduction of egg hatching at 0.5 mg/g treated with diet measured after 7 days oviposition; format: functional; design: scale not given: the % may be the effect or the level left
[8] = system: Anastrepha serpentina; experiment: Reduction of fertility in 7 days old adult of Anastrepha serpentina assessed as reduction of egg hatching at 0.5 mg/g treated with diet measured after 3 days oviposition; format: functional; design: scale not given: the % may be the effect or the level left
[9] = system: Anastrepha serpentina; experiment: Reduction of fertility in 7 days old adult of Anastrepha serpentina assessed as reduction of egg hatching at 0.1 mg/g treated with diet measured after 3 days oviposition; format: functional; design: scale not given: the % may be the effect or the level left
[10] = system: Anastrepha serpentina; experiment: Reduction of fertility in 7 days old adult of Anastrepha serpentina assessed as reduction of egg hatching at 0.1 mg/g treated with diet measured after 1 day oviposition; format: functional; design: scale not given: the % may be the effect or the level left
[11] = system: Anastrepha obliqua; experiment: Reduction of fertility in 7 days old adult of Anastrepha obliqua assessed as reduction of egg hatching at 30 mg/g treated with diet measured after 7 days oviposition; format: functional; design: scale not given: the % may be the effect or the level left
[12] = system: Anastrepha obliqua; experiment: Reduction of fertility in 7 days old adult of Anastrepha obliqua assessed as reduction of egg hatching at 30 mg/g treated with diet measured after 5 days oviposition; format: functional; design: scale not given: the % may be the effect or the level left
[13] = system: Anastrepha obliqua; experiment: Reduction of fertility in 7 days old adult of Anastrepha obliqua assessed as reduction of egg hatching at 30 mg/g treated with diet measured after 3 days oviposition; format: functional; design: scale not given: the % may be the effect or the level left
[14] = system: Anastrepha obliqua; experiment: Reduction of fertility in 7 days old adult of Anastrepha obliqua assessed as reduction of egg hatching at 10 mg/g treated with diet measured after 9 days oviposition; format: functional; design: scale not given: the % may be the effect or the level left
[15] = system: Anastrepha obliqua; experiment: Reduction of fertility in 7 days old adult of Anastrepha obliqua assessed as reduction of egg hatching at 1 mg/g treated with diet measured after 1 day oviposition; format: functional; design: scale not given: the % may be the effect or the level left
[16] = system: Anastrepha obliqua; experiment: Reduction of fertility in 7 days old adult of Anastrepha obliqua assessed as reduction of egg hatching at 0.5 mg/g treated with diet measured after 9 days oviposition; format: functional; design: scale not given: the % may be the effect or the level left
[17] = system: Anastrepha obliqua; experiment: Reduction of fertility in 7 days old adult of Anastrepha obliqua assessed as reduction of egg hatching at 0.5 mg/g treated with diet measured after 5 days oviposition; format: functional; design: scale not given: the % may be the effect or the level left
[18] = system: Anastrepha obliqua; experiment: Reduction of fertility in 7 days old adult of Anastrepha obliqua assessed as reduction of egg hatching at 0.1 mg/g treated with diet measured after 3 days oviposition; format: functional; design: scale not given: the % may be the effect or the level left
[19] = system: Anastrepha obliqua; experiment: Reduction of fertility in 7 days old adult of Anastrepha obliqua assessed as reduction of egg hatching at 0.1 mg/g treated with diet measured after 1 day oviposition; format: functional; design: scale not given: the % may be the effect or the level left
[20] = system: Anastrepha ludens; experiment: Reduction of fertility in 7 days old adult of Anastrepha ludens assessed as reduction of egg hatching at 30 mg/g treated with diet measured after 11 days oviposition; format: functional; design: scale not given: the % may be the effect or the level left
[21] = system: Anastrepha ludens; experiment: Reduction of fertility in 7 days old adult of Anastrepha ludens assessed as reduction of egg hatching at 30 mg/g treated with diet measured after 9 days oviposition; format: functional; design: scale not given: the % may be the effect or the level left
[22] = system: Anastrepha striata; experiment: Reduction of fertility in 7 days old adult of Anastrepha striata assessed as reduction of egg hatching at 1 mg/g treated with diet measured after 9 days oviposition; format: functional; design: scale not given: the % may be the effect or the level left
[23] = system: Anastrepha striata; experiment: Reduction of fertility in 7 days old adult of Anastrepha striata assessed as reduction of egg hatching at 1 mg/g treated with diet measured after 3 days oviposition; format: functional; design: scale not given: the % may be the effect or the level left
[24] = system: Anastrepha serpentina; experiment: Reduction of fertility in 7 days old adult of Anastrepha serpentina assessed as reduction of egg hatching at 0.5 mg/g treated with diet measured after 11 days oviposition; format: functional; design: scale not given: the % may be the effect or the level left
[25] = system: Anastrepha striata; experiment: Reduction of fertility in 7 days old adult of Anastrepha striata assessed as reduction of egg hatching at 0.1 mg/g treated with diet measured after 5 days oviposition; format: functional; design: scale not given: the % may be the effect or the level left
[26] = system: Anastrepha serpentina; experiment: Reduction of fertility in 7 days old adult of Anastrepha serpentina assessed as reduction of egg hatching at 30 mg/g treated with diet measured after 11 days oviposition; format: functional; design: scale not given: the % may be the effect or the level left
[27] = system: Anastrepha serpentina; experiment: Reduction of fertility in 7 days old adult of Anastrepha serpentina assessed as reduction of egg hatching at 30 mg/g treated with diet measured after 7 days oviposition; format: functional; design: scale not given: the % may be the effect or the level left
[28] = system: Anastrepha serpentina; experiment: Reduction of fertility in 7 days old adult of Anastrepha serpentina assessed as reduction of egg hatching at 30 mg/g treated with diet measured after 5 days oviposition; format: functional; design: scale not given: the % may be the effect or the level left
[29] = system: Anastrepha serpentina; experiment: Reduction of fertility in 7 days old adult of Anastrepha serpentina assessed as reduction of egg hatching at 10 mg/g treated with diet measured after 11 days oviposition; format: functional; design: scale not given: the % may be the effect or the level left
[30] = system: Anastrepha serpentina; experiment: Reduction of fertility in 7 days old adult of Anastrepha serpentina assessed as reduction of egg hatching at 10 mg/g treated with diet measured after 9 days oviposition; format: functional; design: scale not given: the % may be the effect or the level left
[31] = system: Anastrepha serpentina; experiment: Reduction of fertility in 7 days old adult of Anastrepha serpentina assessed as reduction of egg hatching at 5 mg/g treated with diet measured after 5 days oviposition; format: functional; design: scale not given: the % may be the effect or the level left
[32] = system: Anastrepha serpentina; experiment: Reduction of fertility in 7 days old adult of Anastrepha serpentina assessed as reduction of egg hatching at 5 mg/g treated with diet measured after 3 days oviposition; format: functional; design: scale not given: the % may be the effect or the level left
[33] = system: Anastrepha serpentina; experiment: Reduction of fertility in 7 days old adult of Anastrepha serpentina assessed as reduction of egg hatching at 1 mg/g treated with diet measured after 11 days oviposition; format: functional; design: scale not given: the % may be the effect or the level left
[34] = system: Anastrepha serpentina; experiment: Reduction of fertility in 7 days old adult of Anastrepha serpentina assessed as reduction of egg hatching at 1 mg/g treated with diet measured after 9 days oviposition; format: functional; design: scale not given: the % may be the effect or the level left
[35] = system: Anastrepha serpentina; experiment: Reduction of fertility in 7 days old adult of Anastrepha serpentina assessed as reduction of egg hatching at 1 mg/g treated with diet measured after 5 days oviposition; format: functional; design: scale not given: the % may be the effect or the level left
[36] = system: Anastrepha serpentina; experiment: Reduction of fertility in 7 days old adult of Anastrepha serpentina assessed as reduction of egg hatching at 1 mg/g treated with diet measured after 3 days oviposition; format: functional; design: scale not given: the % may be the effect or the level left
[37] = system: Anastrepha serpentina; experiment: Reduction of fertility in 7 days old adult of Anastrepha serpentina assessed as reduction of egg hatching at 1 mg/g treated with diet measured after 1 day oviposition; format: functional; design: scale not given: the % may be the effect or the level left
[38] = system: Anastrepha striata; experiment: Reduction of fertility in 7 days old adult of Anastrepha striata assessed as reduction of egg hatching at 10 mg/g treated with diet measured after 5 days oviposition; format: functional; design: scale not given: the % may be the effect or the level left
[39] = system: Anastrepha striata; experiment: Reduction of fertility in 7 days old adult of Anastrepha striata assessed as reduction of egg hatching at 5 mg/g treated with diet measured after 11 days oviposition; format: functional; design: scale not given: the % may be the effect or the level left
[40] = system: Anastrepha ludens; experiment: Effect on fertility in 7 days old adult male of Anastrepha ludens at 30 mg/g treated with diet after 24 hr in presence of untreated adult female of Anastrepha ludens; format: functional, organism-based
[41] = system: Anastrepha ludens; experiment: Effect on fertility in 7 days old adult female of Anastrepha ludens at 30 mg/g treated with diet after 24 hr in presence of untreated adult male of Anastrepha ludens; format: functional, organism-based

## O=C(NC(=O)c1c(F)cccc1F)Nc1cc(Cl)c(OC(F)(F)C(F)C(F)(F)F)cc1Cl (racemic) [LUFENURON]
[1]
  Activity: 6%
[2]
  Activity: 14.7%
[3]
  Activity: 13.3%
[4]
  Activity: 2.7%
[5]
  Activity: 26.7%
[6]
  Activity: 0%
[7]
  Activity: 12%
[8]
  Activity: 87.3%
[9]
  Activity: 95%
[10]
  Activity: 98.9%
[11]
  Activity: 0.7%
[12]
  Activity: 0%
[13]
  Activity: 0%
[14]
  Activity: 0%
[15]
  Activity: 0%
[16]
  Activity: 4.7%
[17]
  Activity: 0%
[18]
  Activity: 7.3%
[19]
  Activity: 14.7%
[20]
  Activity: 15.3%
[21]
  Activity: 15.3%
[22]
  Activity: 4.7%
[23]
  Activity: 8%
[24]
  Activity: 86%
[25]
  Activity: 60.7%
[26]
  Activity: 78%
[27]
  Activity: 54.2%
[28]
  Activity: 78.4%
[29]
  Activity: 79.3%
[30]
  Activity: 85.3%
[31]
  Activity: 83.1%
[32]
  Activity: 58.9%
[33]
  Activity: 91.2%
[34]
  Activity: 95.6%
[35]
  Activity: 71.8%
[36]
  Activity: 71.1%
[37]
  Activity: 42.7%
[38]
  Activity: 2%
[39]
  Activity: 6.7%
[40]
  Activity: inactive
[41]
  Activity: inactive
